Assay results reported in patent US9303049B2, “Nanodot and method for manufacturing the same” (National Sun Yat-sen University, priority 2013, dated 2016).

Assays:
[1] = system: SK-Hep-1 cell; assay: Stability measurement of fluorescence under continuous excitation light in SK-Hep-1 cell; assay type: cell-based; settings: continuously irradiated with excitation light, observed at 2 minutes and 5 minutes versus 0 minutes
Method: SK-Hep-1 cell was incubated under 37° C. for 12 hours (overnight). Then the 3-aminopropyltriethoxysilane nanodot solution (20 mM) prepared in example 4 and the avidin modified 3-aminopropyltriethoxysilane nanodot solution (20 mM) were added into this SK-Hep-1 cell to form two cell cultures respectively. […] Then the cell was fixed by paraformaldehyde. […] Referring to FIG. 10, FIGS. 10(a)-(d) show the SK-Hep-1 cell added with 3-aminopropyltriethoxysilane nanodot solution. FIGS. 10(m)-(p) show the SK-Hep-1 cell added with avidin modified 3-aminopropyltriethoxysilane nanodot solution. […] Therefore, the fluorescence signal of FIGS. 10(b)-(d) and (n)-(p) resulted from the nanodot. In addition, FIGS. 10(i)-(I) show the SK-Hep-1 cell added with avidin-FITC. […] FIGS. 13(a)-(c) show the images of the SK-Hep-1 cell added with 3-aminopropyltriethoxysilane nanodot solution and continuously irradiated with excitation light, wherein FIGS. 13(a)-(c) are the images observed at 0 minutes, 2 minutes and 5 minutes respectively. FIGS. 13(d)-(f) show the images of the SK-Hep-1 cell added with avidin-FITC and continuously irradiated with excitation light, wherein FIGS. 13(d)-(f) are the images observed at 0 minutes, 2 minutes and 5 minutes respectively. […]

[2] = system: SK-Hep-1 cell; assay: Bioprobing and bioimaging, fluorescence microscopy of SK-Hep-1 cell; assay type: cell-based; settings: for fluorescence signal in SK-Hep-1 cell: 48 hours incubation, nanodot solutions 20 mM, different excitation light sources
Method: SK-Hep-1 cell was incubated under 37° C. for 12 hours (overnight). Then avidin (purchased from Sigma) was added into the SK-Hep-1 cell to form a cell culture. […] Then the cell was fixed by paraformaldehyde.
SK-Hep-1 cell was incubated under 37° C. for 12 hours (overnight). Then avidin-FITC (purchased from Sigma) was added into the SK-Hep-1 cell to form a cell culture.
SK-Hep-1 cell was incubated under 37° C. for 12 hours (overnight). Then the 3-aminopropyltriethoxysilane nanodot solution (20 mM) prepared in example 4 and the avidin modified 3-aminopropyltriethoxysilane nanodot solution (20 mM) were added into this SK-Hep-1 cell to form two cell cultures respectively. […] Then the cell was fixed by paraformaldehyde. […] Referring to FIG. 10, FIGS. 10(a)-(d) show the SK-Hep-1 cell added with 3-aminopropyltriethoxysilane nanodot solution. FIGS. 10(m)-(p) show the SK-Hep-1 cell added with avidin modified 3-aminopropyltriethoxysilane nanodot solution. […] Therefore, the fluorescence signal of FIGS. 10(b)-(d) and (n)-(p) resulted from the nanodot. In addition, FIGS. 10(i)-(I) show the SK-Hep-1 cell added with avidin-FITC. […] FIGS. 13(a)-(c) show the images of the SK-Hep-1 cell added with 3-aminopropyltriethoxysilane nanodot solution and continuously irradiated with excitation light, wherein FIGS. 13(a)-(c) are the images observed at 0 minutes, 2 minutes and 5 minutes respectively. FIGS. 13(d)-(f) show the images of the SK-Hep-1 cell added with avidin-FITC and continuously irradiated with excitation light, wherein FIGS. 13(d)-(f) are the images observed at 0 minutes, 2 minutes and 5 minutes respectively. FIGS. 13(g)-(i) show the images of the SK-Hep-1 cell added with avidin modified 3-aminopropyltriethoxysilane nanodot solution and continuously irradiated with excitation light, wherein FIGS. 13(g)-(i) are the images observed at 0 minutes, 2 minutes and 5 minutes respectively. […] Therefore, the nanodot has better photo stability.

avidin modified 3-aminopropyltriethoxysilane nanodot: 3-aminopropyltriethoxysilane nanodot of example 4 modified with avidin
fluorescence after continuous irradiation (photo stability) [1]: only became slightly weak
fluorescence signal in SK-Hep-1 cell [2]: significant multiphoton fluorescence with red, green and blue lights emitted
effect of avidin modification on entry into cells ([2]; FIGS. 10(n)-(p) compared with FIGS. 10(b)-(d), SK-Hep-1 cell, 48 hours): enhance the efficiency of the nanodot to enter into cells and aggregate in cells

avidin-FITC: avidin-FITC purchased from Sigma; FITC is a conventional organic fluorescent dye widely applied in bioimaging
fluorescence after continuous irradiation (photo stability) [1]: nearly no fluorescence
fluorescence signal in SK-Hep-1 cell [2]: could not emit blue and red fluorescence

avidin
fluorescence signal in SK-Hep-1 cell [2]: no fluorescence signal
